Entries after “also recorded” stand apart in the source; their conditions may differ. Read-outs that look alike come from different tables or passages of the source.
Columns and labels:
[1] = Dynamic light scattering, hydrodynamic diameter of the nanoparticles; assay type: physicochemical
Experimental: […] Lipoplexes were formulated at various weight ratios of lipid:mRNA, and mRNA loading efficiency was determined via gel electrophoresis. […] Dynamic light scattering (DLS) was used to determine hydrodynamic diameter of the nanoparticles, graphed as number particle size distribution. Polydispersity index (PDI) was also measured.

[2] = Zeta potential of nanoparticle formulation; assay type: physicochemical; details: LNPs, at a pH of 7.0
THP-1 monocytes = assay: Viability of THP-1 monocytes after transfection, Cell Titer Glo; assay type: cell-based, human
Experimental: Relative viability was determined using a Cell Titer Glo viability assay and calculating viability relative to untransfected cells.

[3] = system: THP-1 human monocyte cell line; assay: THP-1 monocyte transfection efficiency, GFP mRNA lipoplexes and LNPs, flow cytometry; assay type: cell-based; details: for transfection efficiency in lipoplex screen (in words): Family D lipoplexes, lipid:mRNA weight ratio of 2:1, THP-1; for in vitro transfection efficiency, LNP form (in words): LNPs
Experimental: LNPs were formulated through bulk mixing using a molar ratio of 50:38.5:10:1.5 (ionizable lipid/cholesterol/DSPC/DMG-PEG2000) and a 0.067 weight ratio of mRNA to ionizable lipid. Lipoplexes were formulated at various weight ratios of lipid:mRNA, and mRNA loading efficiency was determined via gel electrophoresis.
To evaluate transfection efficiency and cytotoxicity, THP-1 monocytes and Jurkat T cells were transfected with lipoplexes and lipid nanoparticles.
Density plots are shown of GFP+ transfected cells from doses of 2000 ng RNA per 120,000 cells for each formulation.
These 5 lipids are all in the Family D with a spermine headgroup and bis 2-hexyldecanoate tails. Lipids are listed in order of increasing carbon spacer link length. Lipoplexes were created using a lipid:mRNA weight ratio of 2:1 for each formulation.
The measured diameter of the Compound XVI lipoplexes was 359 nm. Compound XVI also functioned effectively as a solid LNP when using a molar ratio of 50:38.5:10:1.5 (ionizable lipid/cholesterol/DSPC/DMG-PEG2000) and a 0.12 weight ratio of mRNA to ionizable lipid. […] The ability to efficiently target blood cells using lipid delivery systems opens the door to a variety of applications, including potent in vivo mRNA delivery and cell reprogramming. […]

[4] = Encapsulation efficiency of LNPs, RiboGreen assay; assay type: physicochemical; details: for average encapsulation efficiency (%): RiboGreen
Experimental: LNPs were formulated through bulk mixing using a molar ratio of 50:38.5:10:1.5 (ionizable lipid/cholesterol/DSPC/DMG-PEG2000) and a 0.067 weight ratio of mRNA to ionizable lipid. Lipoplexes were formulated at various weight ratios of lipid:mRNA, and mRNA loading efficiency was determined via gel electrophoresis. […] Encapsulation efficiency of LNPs was measured using a RiboGreen assay.

Jurkat T cells = assay: Jurkat T cell transfection efficiency of lipoplex formulations, flow cytometry; assay type: cell-based; details: lipoplexes, 100 ng RNA per 100,000 cells, compared to other lipids in Family D
Experimental: To evaluate transfection efficiency and cytotoxicity, THP-1 monocytes and Jurkat T cells were transfected with lipoplexes and lipid nanoparticles. […] A screen of 4 lipoplex formulations was analyzed using flow cytometry for doses of 100 ng RNA per 100,000 cells.

rat dermal tissue = assay: Intradermal injection of lipid-complexed GFP mRNA in rats; assay type: in vivo; details: 2000 ng GFP mRNA, 48 hours
Experimental: In this Example, in vivo experiments were carried out in rats to investigate the transfection and expression efficiency of RNA complexed with the lipids of the present disclosure.
2000 ng of DLinDHS-complexed GFP mRNA was administered to rats by intradermal injection. After 48 hours, the injection site was fixed and stained (anti-rabbit GFP).

HEKn cells = assay: LNP transfection efficacy in HEKn cells, mean GFP fluorescence intensity; assay type: cell-based; details: increasing amounts of mRNA
Experimental: Experiments were conducted to characterize LNP transfection efficacy of Compound XXXV in HEKn cells. A performance comparison was run between control (ToRNAdo lipoplex) and test subject Compound XXXV LNP with increasing amounts of mRNA, with other variables held constant. […] Mean GFP fluorescence intensity was calculated using Operetta® Harmony software. […] An experiment was conducted to characterize lipoplex efficiency in Jurkat cells. A performance comparison was run between control (Lipofectamine 3000) and spermine bis hexyldecanoate ionizable lipid compounds with varying tether length (3-7). Lipid:mRNA weight ratios were optimized for each lipid as determined by gel electrophoresis (Compound XX (2:1), Compound XXVIII (2.5:1), Compound XIX (1:2), Compound XVI (2.5:1), Compound XXIV (1:1)). […] The bottom panels (“Neg.”) of FIG. 57 depict negative control experiments wherein no RNA was delivered.

CCCCCCCCC(CCCCCC)C(=O)OCCCCCCN(CCCN)CCCCN(CCCN)CCCCCCOC(=O)C(CCCCCC)CCCCCCCC (stereo not drawn) [Compound XVI, (butane-1,4-diylbis((3-aminopropyl)azanediyl))bis(hexane-6,1-diyl) bis(2-hexyldecanoate)]
measured diameter of the lipoplexes ([1]; lipoplexes): 359 nm | diameter of LNPs ([1]; solid LNP, molar ratio 50:38.5:10:1.5 (ionizable lipid/cholesterol/DSPC/DMG-PEG2000), 0.12 weight ratio of mRNA to ionizable lipid): 170 nm | surface charge [2]: +3.6 mV | toxicity, viability of THP-1 monocytes after transfection (in words) (THP-1 monocytes): significantly greater toxicity than respective Compound XVI lipoplexes | transfection efficiency in lipoplex screen (in words) [3]: greatest transfection efficiency | in vitro transfection efficiency, LNP form (in words) ([3]; GFP mRNA, THP-1): greater in vitro transfection efficiency than the clinically used Dlin-MC3-DMA LNPs; also recorded: greater in vitro transfection efficiency of THP-1 monocytes than commercially-available controls | half-maximal effective concentration (EC50) ([3]; lipoplexes, GFP mRNA, THP-1): 147 ng RNA per 50,000 cells | in vitro transfection efficiency, lipoplex form (in words) ([3]; lipoplexes, GFP mRNA, THP-1): greatest transfection efficiency; also recorded: greater in vitro transfection efficiency of THP-1 monocytes than commercially-available controls | encapsulation efficiency of LNPs (in words) [4]: near complete encapsulation efficiency; also recorded: greater encapsulation of mRNA | average encapsulation efficiency (%) [4]: 87.0% | transfection in the Jurkat T cell line (in words) (Jurkat T cells): greatest transfection

CCCCC/C=C\C/C=C\CCCCCCCCN(CCCCN(CCCCCCCC/C=C\C/C=C\CCCCC)CC(O)CN)CC(O)CN (stereo not drawn) [DLinDHS, N^1,N^4-dilinoleyl-N^1,N^4-di-(2-hydroxy-3-aminopropyl)-diaminobutane]
GFP reporter expression after intradermal injection (in words) (rat dermal tissue): localized expression in the dermal layer

CCCCCCCCC(CCCCCC)C(=O)OCCCCCN(CCCN)CCCCN(CCCN)CCCCCOC(=O)C(CCCCCC)CCCCCCCC (stereo not drawn) [Compound XIX]
toxicity, relative viability of THP-1 monocytes after transfection (in words) (THP-1 monocytes): greatest toxicity | transfection efficiency in lipoplex screen (in words) [3]: greatest transfection efficiency

CCCCCCCCC(CCCCCC)C(=O)OCCCCCCN(CCCCN(CCCCCCOC(=O)C(CCCCCC)CCCCCCCC)CC(O)CN)CC(O)CN (stereo not drawn) [Compound XXXV, (butane-1,4-diylbis((3-amino-2-hydroxypropyl)azanediyl))bis(hexane-6,1-diyl) bis(2-hexyldecanoate)]
LNP transfection into HEKn cells, mean GFP fluorescence intensity (in words) (HEKn cells): successful transfection into HEKn cells with diminishing returns as mRNA dosage increased

CCCCC/C=C\C/C=C\CCCCCCCCC(CCCCCCCC/C=C\C/C=C\CCCCC)OC(=O)CCCN(C)C [DLin-MC3-DMA, reference compound]
toxicity, viability of THP-1 monocytes after transfection (in words) (THP-1 monocytes; LNPs and lipoplexes (FIG. 10)): very little toxicity | in vitro transfection efficiency, LNP form (in words) ([3]; GFP mRNA, THP-1): low transfection efficiency | average encapsulation efficiency (%) [4]: 61.7%
